According to patent US20250002954A1, “Novel Compound, Use Thereof, and Method for Producing Same, and Compound-Containing Composition, Method for Producing 4-Trehalosamine, and Microorganism” (Microbial Chemistry Research Foundation, priority 2021, published 2025):

Legend:
[1] = system: trehalase derived from pig kidney; test: Degradation by trehalase derived from pig kidney (glucose release); format: in vitro ADME; conditions: 0.01 mM to 10 mM substrate, 0.24 units/mL, pH 5.7, 37° C., 20 minutes
Experimental: Trehalose (TRH) or the 4-trehalosamine (4TA) from the <Purification process> of production example 10 was added to and mixed with 135 mM sodium citrate buffer solution (pH 5.7) so that the final concentration was 0 mM, 0.01 mM, 0.1 mM, 1 mM, or 10 mM. Into them, trehalase derived from pig kidney (0.24 units/mL, manufactured by Sigma-Aldrich) was added and left to react at 37° C. for 20 minutes. Into the solution after reaction, a triple amount of Glucose assay reagent (manufactured by Sigma-Aldrich) was added and left to react at room temperature for 15 minutes. After that, absorbance at 340 nm was measured with a plate reader Cytation 5 (manufactured by Bio Tek Instruments) and the amount of glucose released as degradation product was estimated. FIG. 19B is a zoomed-in view of FIG. 19A.

[2] = system: Mycobacterium smegmatis mc^2 (ATCC 700084); test: Evaluation of mycobacterium-protective activity in freeze-dried condition; format: cell-based; conditions: for Numbers of live bacterial cells (relative numbers): Mycobacterium smegmatis freeze-dried with 6% aqueous solution (final concentration 3%), test sample 3 (FD) = 1
Experimental: Using test samples 1 to 5 containing mycobacterium prepared in the following manner, microorganism-protective activity with trehalose or 4-trehalosamine in a freeze-dried condition was evaluated.
Frozen stock of mycobacterium ([…] Mycobacterium smegmatis mc^2 (American Type Culture Collection (ATCC) 700084)) was inoculated in 10 mL of Middlebrook 7H9 culture medium (manufactured by Becton, Dickinson and Company) and cultured at 37° C. for 72 hours while shaking it at 220 rpm. After culture, it was centrifuged at 3,000×g for 5 minutes, washed once with 10 mL of water, and then suspended in 10 mL of water, thus obtaining mycobacterium suspension. 50 μL of water was added to and mixed with 50 μL of this mycobacterium suspension, and the mixture was left to stand at 4° C. for 20 hours, preparing control (NF).
After mycobacterium suspension was prepared in a similar manner to test sample 1, 50 μL of 6% aqueous solution of trehalose was added to and mixed with 50 µL of the mycobacterium suspension, and the mixture was frozen at −80° C. for 10 minutes. It was then freeze-dried for 20 hours with a freeze dryer (FLEXI-DRY, manufactured by FTS systems INC., Warminster) connected to a vacuum pump (P65D, manufactured by PHIL Sato Vac INC.), preparing freeze-dried product (TRH) of mycobacterium with TRH.
Freeze-dried product (4TA) of mycobacterium with 4TA was obtained in a similar manner to the preparation method of test sample 4 except that trehalose was changed to 4-trehalosamine (4TA) in the preparation method of test sample 4.
For test samples 1 and 2, serial suspensions were made by diluting them to 1/10 with water. […]
Wells in which the number of colonies was measurable were selected and the numbers (relative numbers) of live bacterial cells per well on test samples 1, 2, 4, and 5 when the number of live bacterial cells per well on test sample 3 (FD) was “1” were calculated in consideration of the dilution concentrations of those test samples.

[3] = system: human trehalase; test: Degradation by human trehalase (cell extract liquids of KP4 and KP4-TREH, LC-MS persistence rate); format: in vitro ADME; conditions: 20 μg/mL, 37° C., up to 24 hours; for degradation by cell extract liquid of human pancreatic cancer cells KP4: control cells
Experimental: In order to perform a degradation experiment with human trehalase, high expression strains of the same were made.
This plasmid was introduced into various kinds of cultured human cells using Viafect (manufactured by Promega), and the expression level of transient trehalase protein was analyzed by western blotting with 1/2,000-diluted anti-trehalase antibody (manufactured by Santa Cruz). […] Human pancreatic cancer cells KP4 into which pSF-TREH 3-3 plasmid had been introduced as described above was diluted to one cell or less per well, and applied to a 96-well microplate. They were cultured on DMEM culture medium containing 400 μg/mL of G418 (manufactured by Thermo Fisher Scientific), and clones with stable trehalase expression were selected and amplified. Ten strains of KP4-TREH which were the clones with the highest trehalase expression were chosen for use in the subsequent experiments.
Degradation of 4-trehalosamine and trehalose by cell extract liquids of human pancreatic cancer cells KP4 and 10 strains of KP4-TREH, which are cells with high human trehalase expression, was examined.
Using DMEM culture medium, each of the human pancreatic cancer cells KP4 and the 10 strains of KP4-TREH was amplified in a CO2 incubator at 37° C. until they were confluent. After that, the culture medium was removed and washed with PBS (manufactured by Takara Bio Inc.) three times, and cells were collected with a cell scraper in the PBS. After centrifuging the collected cell suspension at 400×g for 3 minutes and removing supernatant, 135 mM citric acid buffer solution (pH 5.7) containing 0.5% Triton (registered trademark) in an amount 15 times the precipitated cells was added and homogenized. The cells were centrifuged at 21,300×g for 10 minutes and the respective supernatants were collected. Aqueous solution of 4-trehalosamine or aqueous solution of trehalose was added at 20 μg/mL to each supernatant and they were left to stand at 37° C. At 0 hours, 2 hours, 8 hours, or 24 hours from the start of reaction, the reaction solutions were collected, was diluted with methanol to 1/10, and centrifuged at 21,300×g for 10 minutes. The respective supernatants were collected and LC-MS analysis was performed under similar conditions to test example 1 to determine the persistence rates of 4-trehalosamine and trehalose in the reaction solution (4TA C) of 4-trehalosamine and the cell extract liquid of human pancreatic cancer cells KP4, the reaction solution (4TA T) of 4-trehalosamine and the cell extract liquid of 10 strains of KP4-TREH, the reaction solution (TRH C) of trehalose and the cell extract liquid of human pancreatic cancer cells KP4, and the reaction solution (TRH T) of trehalose and the cell extract liquid of 10 strains of KP4-TREH.

[4] = system: blood glucose level; test: Change in blood glucose level after oral administration to mice; format: in vivo, ICR mice; conditions: single oral dose 0.5 mg per g of body weight, fasted
Experimental: 4-trehalosamine or trehalose dissolved in saline at 0.5 mg/10 μL per g of body weight was orally administered in a single dose to ICR mice (9-week to 10-week old, female, n=5) that had been fasted overnight. The five mice on which the same treatment had been performed were placed in the same cage.
In a 96-well plate, the centrifuged supernatant sample of dilution of blood with methanol prepared in <Determination of blood level of 4-trehalosamine> (a sample similar to the sample used in the LC-MS analysis) was placed at 5 µL/well and dried by suction with a vacuum pump. After that, it was dissolved in 25 μL of water, 75 μL of Glucose assay reagent (manufactured by Sigma-Aldrich) was added, and the solution was left to stand at 37° C. for 1 hour. Absorbance at 340 nm was then measured with a plate reader Cytation 5 (manufactured by Bio Tek Instruments) and the amount of glucose estimated.

SMILES | degradation by pig trehalase (release of glucose) [1] | Numbers of live bacterial cells (relative numbers) [2] | protective effect on microorganisms, comparison ([2]; Mycobacterium smegmatis, freeze-dried) | degradation by cell extract liquid of 10 strains of KP4-TREH (high human trehalase expression) [3] | degradation by cell extract liquid of human pancreatic cancer cells KP4 [3] | change in blood glucose level [4]
N[C@H]1[C@H](O)[C@@H](O)[C@@H](O[C@H]2O[C@H](CO)[C@@H](O)[C@H](O)[C@H]2O)O[C@@H]1CO [4-trehalosamine] | not degraded by pig trehalase | 100 | stronger than when trehalose was added | almost no degradation or decrease | neither trehalose nor 4-trehalosamine was degraded | no elevation in the blood glucose level was observed
OC[C@H]1O[C@H](O[C@H]2O[C@H](CO)[C@@H](O)[C@H](O)[C@H]2O)[C@H](O)[C@@H](O)[C@@H]1O [trehalose, reference compound] | degraded in this reaction and release of glucose was observed | 10 | – | almost disappeared after 8 hours | neither trehalose nor 4-trehalosamine was degraded | elevation in the blood glucose level was observed 30 minutes to 1 hour after administration
